Read-outs that look alike come from different tables or passages of the source.
Assay: Phase I study CXR1002-001: plasma pharmacokinetics (LC-MS/MS)
Format: in vivo, human
Details: human, plasma, oral, person, plasma, read-out: Concentration; for concentration at 168 h: 168 hr (Day 8); for concentration at 192 h: 192 hr (Day 9); for concentration at 336 h: 336 hr (Day 15); for concentration at 360 h: 360 hr (Day 16); for concentration at 504 h: 504 hr (Day 22); for concentration at 528 h: 528 hr (Day 23); for concentration at 672 h: 672 hr (Day 29); for concentration at 696 h: 696 hr (Day 30); for concentration at 840 h: 840 hr (Day 36); for concentration at 24 h: 24 hr (Day 2); for concentration at 864 h: 864 hr (Day 37)
Excerpt: PK samples, PD (fasting) samples, blood glucose, and blood triglyceride samples, were taken over a 6-week period.
Dose limiting toxicity (DLT) will be based on the toxicity assessments over the first 3-week period of the repeat dosing schedule. PK samples (single blood sample) were taken on the following basis: • Every 6 weeks during the repeat dosing phase • If dosing is interrupted or stopped, samples will be taken at intervals according to patient convenience • PK sampling for safety evaluation may take place at any time, as clinically indicated
Plasma samples were collected after the single 50 mg dose at the following timepoints: Pre-dose, and then 0.25, 0.5, 0.75, 1, 1.5, 2, 3, 4, 6, 24, 48, and 72 hours after administration and then once weekly at weeks 2, 3, 4, 5, and 6 (days 8, 15, 22, 29, and 36). For patients treated with the weekly repeat dose, plasma samples were collected at the following timepoints: Pre-dose and then 2, 3, 4 and 24 hours after administration for a total of 6 weeks. Thereafter a single sample was collected every 6 weeks for monitoring of exposure during long term treatment. Plasma samples were processed at site and stored at −80° C. prior to batch shipment to the analytical laboratory.

O=C(O)C(F)(F)C(F)(F)C(F)(F)C(F)(F)C(F)(F)C(F)(F)C(F)(F)F [CXR1002]
concentration at 168 h (750 mg, Patient 027, 750 mg): 168 µM | concentration at 170 h (750 mg, Patient 027, 750 mg): 235 µM | concentration at 171 h (750 mg, Patient 027, 750 mg): 318 µM | concentration at 172 h (750 mg, Patient 027, 750 mg): 344 µM | concentration at 192 h (750 mg, Patient 027, 750 mg): 411 µM | concentration at 336 h (750 mg, Patient 027, 750 mg): 366 µM | concentration at 338 h (750 mg, Patient 027, 750 mg): 384 µM | concentration at 339 h (750 mg, Patient 027, 750 mg): 412 µM | concentration at 340 h (750 mg, Patient 027, 750 mg): 451 µM | concentration at 360 h (750 mg, Patient 027, 750 mg): 569 µM | concentration at 504 h (750 mg, Patient 027, 750 mg): 476 µM | concentration at 506 h (750 mg, Patient 027, 750 mg): 658 µM | concentration at 507 h (750 mg, Patient 027, 750 mg): 669 µM | concentration at 508 h (750 mg, Patient 027, 750 mg): 671 µM | concentration at 528 h (750 mg, Patient 027, 750 mg): 720 µM | concentration at 672 h (750 mg, Patient 027, 750 mg): 606 µM | concentration at 674 h (750 mg, Patient 027, 750 mg): 769 µM | concentration at 675 h (750 mg, Patient 027, 750 mg): 811 µM | concentration at 676 h (750 mg, Patient 027, 750 mg): 757 µM | concentration at 696 h (750 mg, Patient 027, 750 mg): 803 µM | concentration at 840 h (750 mg, Patient 027, 750 mg): 673 µM | concentration at 2 h (750 mg, Patient 028, 750 mg): 207 µM | concentration at 3 h (750 mg, Patient 028, 750 mg): 174 µM | concentration at 4 h (750 mg, Patient 028, 750 mg): 160 µM | concentration at 24 h (750 mg, Patient 028, 750 mg): 160 µM | concentration at 168 h (750 mg, Patient 028, 750 mg): 161 µM | concentration at 170 h (750 mg, Patient 028, 750 mg): 321 µM | concentration at 171 h (750 mg, Patient 028, 750 mg): 301 µM | concentration at 172 h (750 mg, Patient 028, 750 mg): 273 µM | concentration at 192 h (750 mg, Patient 028, 750 mg): 295 µM | concentration at 336 h (750 mg, Patient 028, 750 mg): 288 µM | concentration at 338 h (750 mg, Patient 028, 750 mg): 473 µM | concentration at 339 h (750 mg, Patient 028, 750 mg): 396 µM | concentration at 340 h (750 mg, Patient 028, 750 mg): 406 µM | concentration at 360 h (750 mg, Patient 028, 750 mg): 450 µM | concentration at 504 h (750 mg, Patient 028, 750 mg): 467 µM | concentration at 506 h (750 mg, Patient 028, 750 mg): 582 µM | concentration at 507 h (750 mg, Patient 028, 750 mg): 490 µM | concentration at 508 h (750 mg, Patient 028, 750 mg): 581 µM | concentration at 528 h (750 mg, Patient 028, 750 mg): 655 µM | concentration at 672 h (750 mg, Patient 028, 750 mg): 522 µM | concentration at 674 h (750 mg, Patient 028, 750 mg): 710 µM | concentration at 675 h (750 mg, Patient 028, 750 mg): 713 µM | concentration at 676 h (750 mg, Patient 028, 750 mg): 700 µM | concentration at 696 h (750 mg, Patient 028, 750 mg): 758 µM | concentration at 840 h (750 mg, Patient 028, 750 mg): 682 µM | concentration at 842 h (750 mg, Patient 028, 750 mg): 824 µM | concentration at 843 h (750 mg, Patient 028, 750 mg, 843 hr): 792 µM | concentration at 844 h (750 mg, Patient 028, 750 mg, 844 hr): 853 µM | concentration at 864 h (750 mg, Patient 028, 750 mg): 775 µM | concentration at 2 h (950 mg, Patient 029, 950 mg): 219 µM | concentration at 3 h (950 mg, Patient 029, 950 mg): 251 µM | concentration at 4 h (950 mg, Patient 029, 950 mg): 307 µM | concentration at 24 h (950 mg, Patient 029, 950 mg): 353 µM | concentration at 168 h (950 mg, Patient 029, 950 mg): 289 µM | concentration at 170 h (950 mg, Patient 029, 950 mg): 604 µM | concentration at 171 h (950 mg, Patient 029, 950 mg): 602 µM | concentration at 172 h (950 mg, Patient 029, 950 mg): 556 µM | concentration at 192 h (950 mg, Patient 029, 950 mg): 606 µM | concentration at 336 h (950 mg, Patient 029, 950 mg): 439 µM | concentration at 338 h (950 mg, Patient 029, 950 mg): 704 µM | concentration at 339 h (950 mg, Patient 029, 950 mg): 777 µM | concentration at 340 h (950 mg, Patient 029, 950 mg): 674 µM | concentration at 360 h (950 mg, Patient 029, 950 mg): 896 µM | concentration at 504 h (950 mg, Patient 029, 950 mg): 400 µM | concentration at 506 h (950 mg, Patient 029, 950 mg): 897 µM | concentration at 507 h (950 mg, Patient 029, 950 mg): 741 µM | concentration at 508 h (950 mg, Patient 029, 950 mg): 701 µM | concentration at 528 h (950 mg, Patient 029, 950 mg): 781 µM | concentration at 672 h (950 mg, Patient 029, 950 mg): 492 µM | concentration at 674 h (950 mg, Patient 029, 950 mg): 841 µM | concentration at 675 h (950 mg, Patient 029, 950 mg): 972 µM | concentration at 676 h (950 mg, Patient 029, 950 mg): 812 µM | concentration at 696 h (950 mg, Patient 029, 950 mg): 949 µM | concentration at 840 h (950 mg, Patient 029, 950 mg): 777 µM | concentration at 842 h (950 mg, Patient 029, 950 mg): 793 µM | concentration at 864 h (950 mg, Patient 029, 950 mg): 1040 µM | concentration at 3 h (950 mg, Patient 030, 950 mg): 219 µM | concentration at 4 h (950 mg, Patient 030, 950 mg): 333 µM | concentration at 24 h (950 mg, Patient 030, 950 mg): 214 µM | concentration at 2 h (950 mg, Patient 031, 950 mg): 267 µM | concentration at 3 h (950 mg, Patient 031, 950 mg): 338 µM | concentration at 4 h (950 mg, Patient 031, 950 mg): 336 µM | concentration at 24 h (950 mg, Patient 031, 950 mg): 348 µM | concentration at 168 h (950 mg, Patient 031, 950 mg): 237 µM | concentration at 170 h (950 mg, Patient 031, 950 mg): 513 µM | concentration at 171 h (950 mg, Patient 031, 950 mg): 463 µM | concentration at 172 h (950 mg, Patient 031, 950 mg): 427 µM | concentration at 192 h (950 mg, Patient 031, 950 mg): 516 µM | concentration at 336 h (950 mg, Patient 031, 950 mg): 554 µM | concentration at 338 h (950 mg, Patient 031, 950 mg): 668 µM | concentration at 339 h (950 mg, Patient 031, 950 mg): 715 µM | concentration at 340 h (950 mg, Patient 031, 950 mg): 697 µM | concentration at 360 h (950 mg, Patient 031, 950 mg): 800 µM | concentration at 504 h (950 mg, Patient 031, 950 mg): 755 µM | concentration at 506 h (950 mg, Patient 031, 950 mg): 794 µM | concentration at 507 h (950 mg, Patient 031, 950 mg): 861 µM | concentration at 508 h (950 mg, Patient 031, 950 mg): 998 µM | concentration at 528 h (950 mg, Patient 031, 950 mg): 958 µM | concentration at 672 h (950 mg, Patient 031, 950 mg): 813 µM | concentration at 674 h (950 mg, Patient 031, 950 mg): 921 µM | concentration at 675 h (950 mg, Patient 031, 950 mg): 882 µM | concentration at 676 h (950 mg, Patient 031, 950 mg): 938 µM | concentration at 696 h (950 mg, Patient 031, 950 mg): 1030 µM | concentration at 2 h (950 mg, Patient 032, 950 mg): 292 µM | concentration at 3 h (950 mg, Patient 032, 950 mg): 191 µM | concentration at 4 h (950 mg, Patient 032, 950 mg): 231 µM | concentration at 24 h (950 mg, Patient 032, 950 mg): 161 µM | concentration at 168 h (950 mg, Patient 032, 950 mg): 192 µM | concentration at 170 h (950 mg, Patient 032, 950 mg): 439 µM | concentration at 171 h (950 mg, Patient 032, 950 mg): 478 µM | concentration at 172 h (950 mg, Patient 032, 950 mg): 517 µM | concentration at 192 h (950 mg, Patient 032, 950 mg): 495 µM | concentration at 2 h (1000 mg, Patient 040, 1000 mg): 188 µM | concentration at 3 h (1000 mg, Patient 040, 1000 mg): 168 µM

— patent US20130029928A1 (priority 2010, published 2013)
